Non-standard residues stand in square brackets, D forms with d. Residues, ends and D or L forms follow the SMILES beside them. No end group written: not given here. ξ: configuration not given here. ξGly(decyl) = CCCCCCCCCCC(N)C(=O)O; 2Adod = 2-aminododecanoic acid
Assays:
IL-2 = IL-2 ELISA, anti-CD3/anti-CD28 stimulated isolated CD3+ T cells; assay type: cell-based, human; conditions: 72 hrs
[1] = PET-CT uptake of Cu64-labelled NOTA-peptide in lung and blood after SC, IP, oral gavage; assay type: in vivo; conditions: 200 ug SC/IP and 1 mg OG, mice
Description: For FIG. 1d, 1,4,7-Triazacyclononane-1,4,7-triacetic acid (NOTA) conjugated peptides were acquired from Auspep, reconstituted in deionised water at 10 mg/mL and used without further purification. Peptides were incubated with ^64Cu at 1000-fold excess of peptide in 0.1 M pH 5.5 ammonium acetate buffer for 45 minutes at 37° C. 1 μL Samples of each solution were taken and mixed 1:1 with 50 mM EDTA. EDTA incubated sample or neat solution was spotted on TLC paper (Agilent iTLC-SG Glass microfiber chromatography paper impregnated with silica gel) and run with 50:50 H2O:ethanol. Detection of radiolabelled species migration was then achieved by imaging on a Bruker In Vivo MS FX Pro imaging system using a radioisotopic phosphor screen. Control experiments were conducted to monitor the elution profile of free ^64Cu and ^64Cu bound to EDTA for quality control. […]
The PET Images were reconstructed using an ordered-subset expectation maximization (OSEM2D) algorithm and analysed using the Inveon Research Workplace software (IRW 4.1) (Siemens) which allows fusion of CT and PET images and definition of regions of interest (ROIs). […] Activity concentrations were then expressed as percent of the decay-corrected injected activity per cm^3 of tissue that can be approximate as percentage injected dose/g (% ID/g). […]

B16-F10 melanoma cells = assay: SRB proliferation assay, B16-F10 melanoma cells; assay type: cell-based; conditions: 2.5 μM, 72 h
Description: (§1) In addition, doxorubicin at 2.5 μM was tested in 5 replicate wells as a positive control. Cells were cultured for a further 72 h in the presence of drug or control before the cell culture medium was removed and the attached cells fixed in ice-cold trichloroacetic acid. […] Each experiment was performed on two independent occasions (biological replicates) and data were analysed in GraphPad Prism 9 using non-linear fit of log (inhibitor) versus response.

Lewis Lung Cancer cells = assay: SRB proliferation assay, Lewis Lung Cancer cells; assay type: cell-based; conditions: 2.5 μM, 72 h
Description: as §1

c-Src = c-Src (Homo sapiens, UniProt P12931); assay: c-Src kinase activity assay ([γ33P-ATP], filtermat); assay type: biochemical
Description: c-Src, Fyn, Hck is incubated with 8 mM MOPS pH 7.0, 0.2 mM EDTA, 250 μM KVEKIGEGTYGVVYK (Cdc2 peptide), 10 mM MgAcetate and [γ33P-ATP] (specific activity approx. 500 cpm/pmol, concentration as required). The reaction is initiated by the addition of the MgATP mix. After incubation for 40 minutes at room temperature, the reaction is stopped by the addition of 3% phosphoric acid solution. 10 μL of the reaction is then spotted onto a P30 filtermat and washed three times for 5 minutes in 75 mM phosphoric acid and once in methanol prior to drying and scintillation counting.

Lck = Lck (Homo sapiens, UniProt P06239); assay: Lck kinase activity assay ([γ33P-ATP], filtermat); assay type: biochemical
Sequence of Lck (P06239 whole entry): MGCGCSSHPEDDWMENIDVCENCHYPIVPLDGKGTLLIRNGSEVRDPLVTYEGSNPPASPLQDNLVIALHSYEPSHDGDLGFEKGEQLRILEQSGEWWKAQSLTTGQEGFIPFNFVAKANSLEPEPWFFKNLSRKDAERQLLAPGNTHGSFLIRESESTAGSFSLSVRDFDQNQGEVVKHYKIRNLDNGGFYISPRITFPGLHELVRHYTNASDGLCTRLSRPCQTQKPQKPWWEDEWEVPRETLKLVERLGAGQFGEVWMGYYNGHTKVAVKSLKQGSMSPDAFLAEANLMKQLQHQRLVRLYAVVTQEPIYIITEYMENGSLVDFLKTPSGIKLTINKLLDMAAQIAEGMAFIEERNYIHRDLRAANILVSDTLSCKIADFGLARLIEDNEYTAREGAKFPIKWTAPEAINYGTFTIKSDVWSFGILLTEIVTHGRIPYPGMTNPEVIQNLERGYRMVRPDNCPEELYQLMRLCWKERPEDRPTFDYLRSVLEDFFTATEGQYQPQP
Description: Lck is incubated with 50 mM Tris pH 7.5, 0.1 mM EGTA, 0.1 mM Na3VO4, 250 μM KVEKIGEGTYGWYK (Cdc2 peptide), 10 mM Magnesium acetate and [γ33P-ATP] (specific activity approx. 500 cpm/pmol, concentration as required). The reaction is initiated by the addition of the Mg/ATP mix. After incubation for 40 minutes at room temperature, the reaction is stopped by the addition of phosphoric acid to a concentration of 0.5%. 10 μL of the reaction is then spotted onto a P30 filtermat and washed four times for 4 minutes in 0.425% phosphoric acid and once in methanol prior to drying and scintillation counting.”

MAP4K1 (HPK1) = MAP4K1 (HPK1) (Homo sapiens, UniProt Q92918); assay: MAP4K1 (HPK1) kinase activity; assay type: biochemical
Sequence of MAP4K1 (HPK1) (Q92918 whole entry): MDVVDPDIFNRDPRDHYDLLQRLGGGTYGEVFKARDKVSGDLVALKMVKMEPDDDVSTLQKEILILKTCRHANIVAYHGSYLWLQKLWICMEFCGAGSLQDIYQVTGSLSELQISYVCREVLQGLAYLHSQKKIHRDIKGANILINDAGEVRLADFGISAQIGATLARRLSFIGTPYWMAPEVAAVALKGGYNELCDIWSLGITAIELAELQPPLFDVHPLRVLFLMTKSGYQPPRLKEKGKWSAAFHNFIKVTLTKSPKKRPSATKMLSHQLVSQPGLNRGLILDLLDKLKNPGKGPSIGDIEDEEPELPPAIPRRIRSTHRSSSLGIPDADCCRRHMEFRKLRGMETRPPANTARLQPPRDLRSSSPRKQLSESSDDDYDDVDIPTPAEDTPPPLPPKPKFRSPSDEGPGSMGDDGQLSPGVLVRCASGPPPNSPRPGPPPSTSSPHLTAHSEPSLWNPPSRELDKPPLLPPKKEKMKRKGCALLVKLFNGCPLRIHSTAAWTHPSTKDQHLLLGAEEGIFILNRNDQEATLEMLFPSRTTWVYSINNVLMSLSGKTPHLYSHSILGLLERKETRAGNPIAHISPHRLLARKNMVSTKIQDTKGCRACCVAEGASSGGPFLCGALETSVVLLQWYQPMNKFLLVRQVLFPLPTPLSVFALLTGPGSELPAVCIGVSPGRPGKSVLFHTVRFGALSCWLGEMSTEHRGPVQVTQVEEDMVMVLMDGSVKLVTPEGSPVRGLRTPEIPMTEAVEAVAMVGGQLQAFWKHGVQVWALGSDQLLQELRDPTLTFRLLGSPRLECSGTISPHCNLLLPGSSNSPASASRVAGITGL

CD28 = CD28 expression on CD4+ T cells of stimulated PBMCs; assay type: cell-based, human; conditions: PBMCs + anti-CD3, 72 hrs
Description: FIG. 7: RSKAKNPLYR-(2Adod)4-NH2 increases CD28 levels on T cells. […] Data presented indicates the mean respective expression in CD4+ T cell populations in response to peptide treatment, +/−SEM, n=4. Data was analysed by two-way ANOVA with Dunnett's post test, *P<0.05, **P<0.01, ***P<0.001, ****P<0.0001. *** indicates all bars under the line are significant compared to vehicle. Red dotted line indicates unstimulated PBMC expression.
Because full activation of MAP kinases requires the presence of the TCR co-receptor, the present inventors sought to examine the expression of CD28 on T cells.

exhausted CD4+ cells = assay: IL-2 from exhausted CD4+ cells upon restimulation (MBP-Tracker mouse splenocytes); assay type: cell-based, mice; conditions: 72 hrs, multiplex immunoassay
Description: Supernatants were collected after 72 hrs in culture to assess IL-2 cytokine production measured by multiplex immunoassay. Data are presented as mean+/−SEM from 4 biological replicates normalised to vehicle control (0). **P<0.01, Non-parametric one way ANOVA (Freidman) with Dunns post-test was used to compare groups at each dose level to lowest level (0.08 μM).
T examine the ability of peptides comprising D-amino acids induce low levels of IL-2, IL-2 expression on exhausted CD4+ cells upon restimulation was examined. In brief, a single spleen per experiment was removed from MBP-Tracker mice and processed to generate a single cell suspension of splenocytes. Cells were resuspended at 3×10^6/mL and stimulated with WT-MBP (control, non-exhausted cells) or APL-MBP (to generate exhausted cells). Cells were stimulated for 72 hr. Following stimulation, T cells were purified by ficoll density gradient and subsequently re-plated at 2×10^6/mL in 20U/mL IL-2 for four days. After 4 days, cells were collected, resuspended (4×10^5/mL, final 2×10^4 per well) and restimulated using irradiated APC (from B10PL×C57BL/6 mice, 4×10^6/mL, final 2×10^5 per well) a single dose of APL-MBP peptide, together with test or reference substance or appropriate controls for 72 hrs. […]

COc1cc(-c2nn([C@H]3CC[C@H](N4CCN(C(C)=O)CC4)CC3)c3ncnc(N)c23)ccc1NC(=O)c1cc2ccccc2n1C [A-770041]
enhancement of IL-2 production, Lck inhibitor compared with IK14004 (IL-2): ten-fold greater enhancement | increase in IL-2 secretion above vehicle control (IL-2; A-770041 at 100 nM): 300%

CCCCCCCCCCC(NC(=O)C(CCCCCCCCCC)NC(=O)C(CCCCCCCCCC)NC(=O)C(CCCCCCCCCC)NC(=O)[C@H](CCCNC(=N)N)NC(=O)[C@H](Cc1ccc(O)cc1)NC(=O)[C@H](CC(C)C)NC(=O)[C@@H]1CCCN1C(=O)[C@H](CC(N)=O)NC(=O)[C@H](CCCCN)NC(=O)[C@H](C)NC(=O)[C@H](CCCCN)NC(=O)[C@H](CO)NC(=O)[C@@H](N)CCCNC(=N)N)C(N)=O (some centres unmarked) [IK14004, RSKAKNPLYR-(2Adod)4-NH2] (H-RSKAKNPLYR[ξGly(decyl)][ξGly(decyl)][ξGly(decyl)][ξGly(decyl)]-NH2; N-terminus assumed)
tolerability of doses [1]: Well tolerated

COc1cccc2c1C(=O)c1c(O)c3c(c(O)c1C2=O)C[C@@](O)(C(=O)CO)C[C@@H]3O[C@H]1C[C@H](N)[C@H](O)[C@H](C)O1 [doxorubicin]
kill in vitro, B16-F10 melanoma cells (B16-F10 melanoma cells): 100% | kill in vitro, Lewis Lung Cancer cells (Lewis Lung Cancer cells): 100%

RSKAKNPLYR [IK14000]
effect on c-Src activity (c-Src): inhibits c-Src | effect on Lck activity (Lck): neither the 10 mer RSKAKNPLYR (designated IK14000) nor 4 lipidic peptide residues designated IK00041 activated Lck

RSKAKNPLYR-(2Adod)3-NH2 (RSKAKNPLYR-{2Adod-2Adod-2Adod-NH2}) [IK14003, … conjugated to three 2-amino dodecanoic acid residues]
effect on c-Src activity (c-Src): stimulated c-Src activity above 1 uM

rskaknplyr-(2Adod)4-NH2 ([dR][dS][dK][dA][dK][dN][dP][dL][dY][dR]-{2Adod-2Adod-2Adod-2Adod-NH2}) […-(2Adod)4-NH2 comprising D amino acids]
effect on MAP4K1 (HPK1) kinase activity (MAP4K1 (HPK1)): inhibits | CD28 levels (CD28): increased CD28 levels | IL-2 expression on exhausted CD4+ cells upon restimulation (exhausted CD4+ cells): increases IL-2 expression

From US20240358790A1, “COMPOSITIONS AND METHODS FOR TREATING AUTOIMMUNITY, INCLUDING AUTOIMMUNITY ASSOCIATED WITH CANCER AND CANCER THERAPY” (Interk Peptide Therapeutics Limited, priority 2021, published 2024)
